Source: patent US9469598B2, “Erythropoietin production-promoting agent” (SBI Pharmaceuticals Co., Ltd., priority 2011, dated 2016)
Structures can show the parent of a compound that is named as a salt.

Test system: HEP3B cells
Assay: Erythropoietin production by HEP3B cells with reduced erythropoietin production ability (ELISA of culture supernatant)
Assay type: cell-based, human
Conditions: 1% oxygen, 24 h
Text: Erythropoietin production ability of erythropoietin producer cells were reduced by culturing the erythropoietin producer cells under hypoxic condition to allow artificial production of erythropoietin, and then adding inflammatory cytokine or uremia toxin.
TNF-α was employed as the inflammatory cytokine. In addition, indoxyl sulfate was employed as the uremic toxin. Indoxyl sulfate is thought to be the causative substance of uremic toxin, and is also the most commonly used uremia-related marker. Indoxyl sulfate in vivo is also a substance where tryptophan-derived indoles are sulfated and synthesized in the liver. Accordingly, a state of reduced erythropoietin production by addition of inflammatory cytokine or uremic toxin is a state of mimicked renal anemia.
In this Example, HEP3B cells which are liver cancer cells that produce erythropoietin of Groups I to VI with different culture conditions (from ATCC) were used. First, as a culturing step common to all 6 groups, about 300,000 HEP3B cells per well of a 12-well plate were cultured. The culture condition employed was culturing in RPMI1640 medium supplemented with 10% FCS/PC-SM at 37° C. under 20% oxygen condition. After 24 hours of culture, they were divided into the following culture conditions I to VI, and further cultured for 24 hours. Human recombinant TNF-a (rhTNF-a; Roche) was employed as TNF-α in the following.
After culturing for 24 hours under the above culture conditions I to VI, the culture supernatant was separated, and the concentration of erythropoietin contained in the culture supernatant was measured with “Human Erythropoietin ELISA kit” (from Bender MedSystems).

Cl.NCC(=O)CCC(=O)O [aminolevulinic acid hydrochloride, 5-aminolevulinic acid hydrochloride]
erythropoietin concentration in culture supernatant, Group (VI) vs Group (V) (1 mM indoxyl sulfate, 0.3 μM 5-aminolevulinic acid hydrochloride with 0.15 μM sodium ferrous citrate): significantly high erythropoietin concentration value compared to Group (V)
erythropoietin concentration in culture supernatant, Group (IV) vs Group (III) (220 U/ml TNF-α, 0.3 μM 5-aminolevulinic acid hydrochloride with 0.15 μM sodium ferrous citrate): significantly high erythropoietin concentration value compared to Group (III)

O=S(=O)(O)Oc1c[nH]c2ccccc12 [indoxyl sulfate]
erythropoietin concentration in culture supernatant, Group (V) vs Group (I) (1 mM indoxyl sulfate): decrease in the concentration of erythropoietin was observed

TNF-α
erythropoietin concentration in culture supernatant, Group (III) vs Group (I) (220 U/ml TNF-α): decrease in the concentration of erythropoietin was observed
